# Source: patent US20110263593A1, “NOVEL IMIDAZO[1,2-a]PYRIMIDINE DERIVATIVES, METHOD FOR THE PREPARATION THEREOF, USE THEREOF AS MEDICAMENTS, PHARMACEUTICAL COMPOSITIONS AND NOVEL USE, IN PARTICULAR AS MET INHIBITORS” (sanofi-aventis, priority 2008, published 2011)
# Structures can show the parent of a compound that is named as a salt.
# Legend:
# MET [1] = molecular target: T1, MET (Homo sapiens, UniProt P08581); test: Test B: inhibition of the autophosphorylation of MET, ELISA technique (pppY1230, 1234, 1235) in MKN45 cells; type: cell-based; design: endogenous in cells; host or cells: MKN45 cells; conditions: 1 h treatment, phosphoMET ELISA
# Experimental: B) Test B: Inhibition of the Autophosphorylation of MET; ELISA Technique (pppY1230, 1234, 1235)
# a) Cell lysates: Seed MKN45 cells into 96-well plates (Cell coat BD polylysine) at 20 000 cells/well in 200 μl in RPMI medium+10% FCS+1% L-glutamine. Leave to adhere for 24 hours in an incubator.
# The cells are treated the day after seeding with the products at 6 concentrations in duplicate for 1 h. At least 3 control wells are treated with the same final amount of DMSO.
# Product dilution: Stock at 10 mM in pure DMSO—range from 10 mM to 30 μM with an increment of 3 in pure DMSO—intermediate 1/50 dilutions in culture medium and then removal of 10 μl added directly to the cells (200 μl): final range from 10 000 to 30 nM.
# At the end of the incubation, carefully remove the supernatant and rinse with 200 μl of PBS. Next, place 100 μl of lysis buffer directly in the wells on ice and incubate at 4° C. for 30 minutes. Lysis buffer: 10 mM Tris HCl, pH 7.4, 100 mM NaCl, 1 mM EDTA, 1 mM EGTA, 1% Triton X-100, 10% glycerol, 0.1% SDS, 0.5% deoxycholate, 20 mM NaF, 2 mM Na3VO4, 1 mM PMSF and cocktail of antiproteases.
# The 100 μl of lysates are transferred into a V-bottomed polypropylene plate and the ELISA is performed immediately, or the plate is frozen at −80° C.
# b) PhosphoMET ELISA BioSource Kit KH00281
# Into each well of the kit plate, add 70 μl of kit dilution buffer+30 μl of cell lysate or 30 μl of lysis buffer for the blanks. Incubate for 2 h with gentle agitation at ambient temperature.
# Rinse the wells 4 times with 400 μl of kit washing buffer. Incubate with 100 μl of anti-phospho MET antibody for 1 hour at ambient temperature.
# Rinse the wells 4 times with 400 μl of kit washing buffer. Incubate with 100 μl of anti-rabbit HRP antibody for 30 minutes at ambient temperature (except for the wells of chromogen alone).
# Rinse the wells 4 times with 400 μl of kit washing buffer. Introduce 100 μl of chromogen and incubate for 30 minutes in the dark at ambient temperature.
# Stop the reaction with 100 μl of stop solution. Read without delay at […], 0.1 second on Wallac Victor plate reader.
# Target sequence in this assay (P08581 25-1390): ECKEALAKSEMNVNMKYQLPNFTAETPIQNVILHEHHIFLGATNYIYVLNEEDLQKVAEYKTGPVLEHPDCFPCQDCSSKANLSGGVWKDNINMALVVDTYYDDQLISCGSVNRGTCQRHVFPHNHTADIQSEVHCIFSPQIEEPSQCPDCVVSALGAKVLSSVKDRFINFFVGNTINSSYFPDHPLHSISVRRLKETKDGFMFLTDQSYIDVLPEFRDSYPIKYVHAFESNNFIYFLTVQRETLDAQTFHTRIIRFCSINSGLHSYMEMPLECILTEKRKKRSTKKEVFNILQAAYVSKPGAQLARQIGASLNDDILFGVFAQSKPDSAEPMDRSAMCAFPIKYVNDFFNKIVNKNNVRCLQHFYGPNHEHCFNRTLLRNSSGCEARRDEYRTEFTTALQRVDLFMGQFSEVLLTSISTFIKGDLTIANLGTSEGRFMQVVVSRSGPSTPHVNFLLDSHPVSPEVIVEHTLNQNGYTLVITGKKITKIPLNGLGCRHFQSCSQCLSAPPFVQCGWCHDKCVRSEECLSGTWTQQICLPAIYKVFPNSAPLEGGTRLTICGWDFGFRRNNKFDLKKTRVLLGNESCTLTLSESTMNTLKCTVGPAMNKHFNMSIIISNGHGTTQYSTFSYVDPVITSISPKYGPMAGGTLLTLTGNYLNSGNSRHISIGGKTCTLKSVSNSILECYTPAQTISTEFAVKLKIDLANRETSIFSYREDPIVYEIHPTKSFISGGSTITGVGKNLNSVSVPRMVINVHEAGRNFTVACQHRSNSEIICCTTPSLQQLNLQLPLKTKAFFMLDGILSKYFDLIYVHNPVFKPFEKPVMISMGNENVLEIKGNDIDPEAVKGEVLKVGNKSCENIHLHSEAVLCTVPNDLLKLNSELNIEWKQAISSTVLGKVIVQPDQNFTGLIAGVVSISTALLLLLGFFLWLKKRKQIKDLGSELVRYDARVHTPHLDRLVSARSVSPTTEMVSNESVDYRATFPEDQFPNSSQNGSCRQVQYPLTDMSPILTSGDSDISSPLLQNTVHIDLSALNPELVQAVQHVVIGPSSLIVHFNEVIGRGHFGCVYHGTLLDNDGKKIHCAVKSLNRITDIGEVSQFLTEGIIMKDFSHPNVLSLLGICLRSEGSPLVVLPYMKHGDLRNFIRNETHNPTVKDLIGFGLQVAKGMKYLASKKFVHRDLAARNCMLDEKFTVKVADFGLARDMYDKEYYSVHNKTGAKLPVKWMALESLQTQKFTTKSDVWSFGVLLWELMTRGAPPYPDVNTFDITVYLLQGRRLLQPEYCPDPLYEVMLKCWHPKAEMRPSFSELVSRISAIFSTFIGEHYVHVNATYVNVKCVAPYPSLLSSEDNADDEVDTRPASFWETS
# MET [2] = molecular target: T1, MET; test: Test A: HTRF MET assay in 96-well format; type: biochemical; design: The His-Tev-MET (956-1390) recombinant DNA in pFastBac (Invitrogen) is transfected into insect cells; His (N, cleaved yes); Tev cleavage site (N, cleaved yes); made in house; host or cells: SF21 insect cells (baculovirus, pFastBac); conditions: 5 nM MET, 10 μM ATP
# Experimental: I) Expression and Purification of MET, Cytoplasmic Domain
# The His-Tev-MET (956-1390) recombinant DNA in pFastBac (Invitrogen) is transfected into insect cells and, after several viral amplification stages, the final baculovirus stock is tested for the expression of the protein of interest.
# After infection for 72 h at 27° C. with the recombinant virus, the SF21 cell cultures are harvested by centrifugation and the cell pellets are stored at −80° C.
# The cell pellets are resuspended in lysis buffer (buffer A [50 mM HEPES, pH 7.5, 250 mM NaCl, 10% glycerol, 1 mM TECP]; + cocktail of protease inhibitors, Roche Diagnostics, without EDTA, ref. 1873580), stirred at 4° C. until the mixture is homogeneous and then lysed mechanically using a “Dounce” type apparatus.
# After centrifugation, the lysis supernatant is incubated for 2 h at 4° C. with nickel chelate resin (His-Trap 6 Fast Flow™, GE HealthCare). After washing with 20 volumes of buffer A, the suspension is packed into a column, and the proteins are eluted with a gradient of buffer B (buffer A+290 mM imidazole).
# The fractions comprising the protein of interest for the purpose of electrophoretic analysis (SDS PAGE) are combined, concentrated by ultrafiltration (10 kDa cut-off) and injected onto an exclusion chromatography column (Superdex™ 200, GE HealthCare) equilibrated in buffer A.
# After enzymatic cleavage of the histidine tag, the protein is reinjected onto a new IMAC nickel chelate chromatography column (His-Trap 6 Fast Flow™, GE HealthCare) equilibrated in buffer A. The fractions eluted with a gradient of buffer B and comprising the protein of interest after electrophoresis (SDS PAGE) are finally combined and conserved at −80° C.
# For the production of autophosphorylated protein, the previous fractions are incubated for 1 h at ambient temperature after the addition of 2 mM ATP, 2 mM MgCl2, and 4 mM Na3VO4. After the reaction has been stopped with 5 mM of EDTA, the reaction mixture is injected onto a HiPrep desalifying column (GE HealthCare) preequilibrated in buffer A+4 mM Na3VO4, and the fractions comprising the protein of interest (SDS PAGE analysis) are combined and stored at −80° C. The degree of phosphorylation is verified by mass spectrometry (LC-MS) and by peptide mapping.
# A) Test A: HTRF MET Assay in 96-Well Format
# MET at a final concentration of 5 nM is incubated in a final volume of 50 μl of enzymatic reaction in the presence of the test molecule (for a final concentration range of from 0.17 nM to 10 μM, 3% DMSO final concentration) in 10 mM MOPS buffer, pH 7.4, 1 mM DTT, 0.01% Tween 20. The reaction is initiated with the substrate solution to obtain final concentrations of 1 μg/ml poly-(GAT), 10 μM ATP and 5 mM MgCl2. After incubation for 10 min at ambient temperature, the reaction is stopped with a 30 μl mix so as to obtain a final solution of 50 mM Hepes, pH 7.5, 500 mM potassium fluoride, 0.1% BSA and 133 mM EDTA in the presence of 80 ng of streptavidin 61SAXLB Cis-Bio Int. and 18 ng of anti-phosphotyrosine Mab PT66-Europium Cryptate per well. After incubation for 2 hours at ambient temperature, the reading is taken at 2 wavelengths, 620 nm and 665 nm, on a reader for the TRACE/HTRF technique and the % inhibition is calculated from the 665/620 ratios.
# Target sequence in this assay (P08581 956-1390): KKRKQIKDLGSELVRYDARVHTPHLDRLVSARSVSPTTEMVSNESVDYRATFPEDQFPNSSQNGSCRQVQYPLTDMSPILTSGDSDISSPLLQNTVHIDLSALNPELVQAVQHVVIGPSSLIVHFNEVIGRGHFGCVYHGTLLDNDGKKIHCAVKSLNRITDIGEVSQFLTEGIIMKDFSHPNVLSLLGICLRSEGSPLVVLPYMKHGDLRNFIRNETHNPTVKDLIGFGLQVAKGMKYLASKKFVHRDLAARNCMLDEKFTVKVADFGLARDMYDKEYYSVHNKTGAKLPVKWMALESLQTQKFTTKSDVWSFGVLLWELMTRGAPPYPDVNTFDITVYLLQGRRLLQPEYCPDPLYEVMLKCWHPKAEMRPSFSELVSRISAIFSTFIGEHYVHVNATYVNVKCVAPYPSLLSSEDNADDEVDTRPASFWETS
# [3] = tested on: HCT116 cells and MKN45 cells; test: Test C: measurement of cell proliferation by 14C-thymidine pulse; type: cell-based; conditions: 14C-thymidine incorporation, 96 h of treatment; cell line not stated (HCT116 and MKN45 in method)
# Experimental: C) Test C: Measurement of cell proliferation by ^14C-thymidine pulse
# The cells are seeded into Cytostar 96-well plates in 180 μl for 4 hours at 37° C. and 5% CO2: HCT116 cells at a rate of 2500 cells per well in DMEM medium+10% foetal calf serum+1% L-glutamine and MKN45 cells at a rate of 7500 cells per well in RPMI medium+10% foetal calf serum+1% L-glutamine. After these 4 hours of incubation, the products are added in 10 μl as a 20-fold concentrated solution according to the dilution method mentioned for the ELISA. The products are tested at 10 concentrations in duplicate from 10 000 nM to 0.3 nM with an increment of 3.
# After treatment for 72 h, add 10 μl of ^14C-thymidine at 10 μCi/ml to obtain 0.1 μCi per well. The ^14C-thymidine incorporation is measured on a Micro-Beta machine (Perkin-Elmer) after 24 hours of pulse and 96 h of treatment.
# All the stages of the assay are automated on BIOMEK 2000 or TECAN stations.
Compound,IC50 (MET [1]) [nM],IC50 (MET [2]) [nM],melting point [°C],IC50 [3] [nM]
"Nc1nc2ccc(Sc3cnc4ncccn34)cc2s1 [Example 1, 6-(imidazo[1,2-a]pyrimidin-3-ylsulphanyl)-1,3-benzothiazol-2-amine]",< 500,< 100,> 260,< 1000
"O=C(Nc1nc2ccc(Sc3cnc4ncccn34)cc2s1)C1CC1 [Example 2, N-[6-(imidazo[1,2-a]pyrimidin-3-ylsulphanyl)-1,3-benzothiazol-2-yl]cyclopropanecarboxamide]",< 100,< 100,258,< 1000
"CC(=O)Nc1nc2ccc(Sc3cnc4ncccn34)cc2s1 [Example 3, N-[6-(imidazo[1,2-a]pyrimidin-3-ylsulphanyl)-1,3-benzothiazol-2-yl]acetamide]",< 100,< 100,> 260,< 1000
"O=C(NCCN1CCOCC1)Nc1nc2ccc(Sc3cnc4ncccn34)cc2s1 [Example 4, 1-[6-(imidazo[1,2-a]pyrimidin-3-ylsulphanyl)-1,3-benzothiazol-2-yl]-3-[2-(morpholin-4-yl)ethyl]urea]",< 100,< 100,> 260,< 1000
"O=C(NCCN1CCCC1)Nc1nc2ccc(Sc3cnc4ncccn34)cc2s1 [Example 5, 1-[6-(imidazo[1,2-a]pyrimidin-3-ylsulphanyl)-1,3-benzothiazol-2-yl]-3-[2-(pyrrolidin-1-yl)ethyl]urea]",< 100,< 100,> 260,< 1000
"O=C(Nc1nc2ccc([S+]([O-])c3cnc4ncccn34)cc2s1)C1CC1 (stereo not drawn) [Example 6, N-[6-(imidazo[1,2-a]pyrimidin-3-ylsulphinyl)-1,3-benzothiazol-2-yl]cyclopropanecarboxamide]",–,< 500,> 260,< 1000
"O=C(Nc1nc2ccc(Sc3cnc4ncccn34)cc2s1)c1ccccc1 [Example 9, N-[6-(imidazo[1,2-a]pyrimidin-3-ylsulphanyl)-1,3-benzothiazol-2-yl]benzamide]",–,< 500,> 260,< 1000
"CN1CCN(CC(=O)Nc2nc3ccc(Sc4cnc5ncccn45)cc3s2)CC1 [Example 10, N-[6-(imidazo[1,2-a]pyrimidin-3-ylsulphanyl)-1,3-benzothiazol-2-yl]-2-(4-methylpiperazin-1-yl)acetamide]",< 100,< 100,–,< 1000
"NCC(=O)Nc1nc2ccc(Sc3cnc4ncccn34)cc2s1 [Example 12, N-[6-(imidazo[1,2-a]pyrimidin-3-ylsulphanyl)-1,3-benzothiazol-2-yl]glycinamide dihydrochloride]",–,< 500,–,< 1000
"O=C(Nc1nc2ccc(Sc3cnc4ncccn34)cc2s1)C1CC1CN1CCOCC1 (stereo not drawn) [Example 13, (trans-A)-N-[6-(imidazo[1,2-a]pyrimidin-3-ylsulphanyl)-1,3-benzothiazol-2-yl]-2-(morpholin-4-ylmethyl)cyclopropanecarboxamide]",< 100,< 100,–,< 1000
"O=C(Nc1nc2ccc(Sc3cnc4ncccn34)cc2s1)C1CC1CN1CCOCC1 (stereo not drawn) [Example 14, (trans-B)-N-[6-(imidazo[1,2-a]pyrimidin-3-ylsulphanyl)-1,3-benzothiazol-2-yl]-2-(morpholin-4-ylmethyl)cyclopropanecarboxamide]",–,< 100,–,< 1000
"CN1CCN(CC(=O)Nc2nc3ccc(Sc4cnc5ncccn45)cc3s2)CC1=O [Example 21, N-[6-(imidazo[1,2-a]pyrimidin-3-ylsulphanyl)-1,3-benzothiazol-2-yl]-2-(4-methyl-3-oxopiperazin-1-yl)acetamide]",< 100,< 100,–,< 1000
"O=C(Nc1nc2ccc(Sc3cnc4ncc(-c5cccc(F)c5)cn34)cc2s1)C1CC1 [Example 23, N-(6-{[6-(3-fluorophenyl)imidazo[1,2-a]pyrimidin-3-yl]sulphanyl}-1,3-benzothiazol-2-yl)cyclopropanecarboxamide]",< 100,< 100,–,< 1000
"O=C(Nc1nc2ccc(Sc3cnc4ncc(OC5CCCCC5)cn34)cc2s1)C1CC1 [Example 24, N-(6-{[6-(cyclohexyloxy)imidazo[1,2-a]pyrimidin-3-yl]sulphanyl}-1,3-benzothiazol-2-yl)cyclopropanecarboxamide]",< 100,< 100,–,< 1000
"Nc1nc2ccc(Sc3cnc4ncc(NC5CCCCC5)cn34)cc2s1 [Example 25, 3-[(2-amino-1,3-benzothiazol-6-yl)sulphanyl]-N-cyclohexylimidazo[1,2-a]pyrimidin-6-amine]",< 100,< 100,–,< 1000
